Results published in PMC10707934, “Design and Synthesis of Novel α-Methylchalcone Derivatives, Anti-Cervical Cancer Activity, and Reversal of Drug Resistance in HeLa/DDP Cells” (Molecules, 2023).
Blank lines part the entries; values can stand above or below the compound they belong to.

Tests used:
Assay type in all cases: cell-based, human
HeLa cells [1] = assay: MTT anti-proliferation assay, HeLa; conditions: 48 h, mean ± SD
Experimental: All cell types, at a volume of 200 µL per well, were inoculated in 96-well plates at a density of 2.5 × 10^4 cells / mL and cultured for 24 h in an incubator with 5% CO2 at 37 °C. The old culture medium was replaced with 200 µL of fresh medium per well containing positive compounds, at concentrations of 1, 6.25, 12.5, 25, 50, and 100 μM. After 48 h of culture, 20 µL per well of 5 mg·mL^−1 MTT solution was added. After 4 h of culture, the old solution was discarded, and 150 µL per well of DMSO solution was added. Using an enzyme labeler (Thermo Fisher Scientific, Multiskan GO, Waltham, MA, USA), the plates were shaken for 10 min, OD values were determined at 490 nm, and the inhibition rate was calculated. Non-linear regression fitting of the cell growth rate was carried out using SPSS 23.0, and the IC50 of the compound was calculated. The inhibition rate was calculated using the formula: [(ODempty − ODtest)/(ODempty − ODnegative group)] × 100%, (ODempty blank group absorbance, ODtest absorbance of administration group, ODnegative group without cell culture medium). Each group contained six compound holes, and the experimental results averaged three trials. Complete medium containing only cells was used as the blank control; a complete medium without cells as was used as the negative control; and cisplatin, paclitaxel, and adriamycin were used as the positive controls. The concentration gradient was the same as that used for compounds 3a–3p. […]

C33A cells = assay: MTT anti-proliferation assay, C33A; conditions: 48 h, mean ± SD
Experimental: All cell types, at a volume of 200 µL per well, were inoculated in 96-well plates at a density of 2.5 × 10^4 cells / mL and cultured for 24 h in an incubator with 5% CO2 at 37 °C. The old culture medium was replaced with 200 µL of fresh medium per well containing positive compounds, at concentrations of 1, 6.25, 12.5, 25, 50, and 100 μM. After 48 h of culture, 20 µL per well of 5 mg·mL^−1 MTT solution was added. After 4 h of culture, the old solution was discarded, and 150 µL per well of DMSO solution was added. Using an enzyme labeler (Thermo Fisher Scientific, Multiskan GO, Waltham, MA, USA), the plates were shaken for 10 min, OD values were determined at 490 nm, and the inhibition rate was calculated. Non-linear regression fitting of the cell growth rate was carried out using SPSS 23.0, and the IC50 of the compound was calculated. The inhibition rate was calculated using the formula: [(ODempty − ODtest)/(ODempty − ODnegative group)] × 100%, (ODempty blank group absorbance, ODtest absorbance of administration group, ODnegative group without cell culture medium). Each group contained six compound holes, and the experimental results averaged three trials. Complete medium containing only cells was used as the blank control; a complete medium without cells as was used as the negative control; and cisplatin, paclitaxel, and adriamycin were used as the positive controls. The concentration gradient was the same as that used for compounds 3a–3p.

HeLa cells [2] = assay: Annexin V-FITC/PI pro-apoptosis assay, HeLa; conditions: 24 h
Experimental: (§1) Cell fluid (2 mL per well) at a concentration of 1.5 × 10^5 cells / mL was added to a 6-well plate and cultured in a cell incubator with 5% CO2 at 37 °C for 24 h. The old solution was discarded; 2 mL of the medium containing compound 3k was added to each well at a concentration gradient of 2.5, 5, and 10 μM; and the experiment was repeated three times at each concentration. Complete medium containing only cells was used as a blank control group, and 20 μM of cisplatin injection and chalcone was used as a positive control. Cells were harvested following a 24 h incubation period, adhering to the guidelines provided with the BD kit (BD Biosciences Pharmingen, 556547, 10975 Torreyana Road, San Diego, CA, USA). Subsequently, the cells were subjected to staining in a light-restricted environment at ambient temperature for a duration of 15 min, followed by filtration and analysis via flow cytometry.

HeLa/DDP cells [3] = assay: Annexin V-FITC/PI pro-apoptosis assay, HeLa/DDP; conditions: 24 h
Experimental: as §1
The pro-apoptotic experiments of compound 3k, cisplatin, and chalcone on HeLa/DDP were performed in the same way as in Section 3.3.3. Western Blotting Analysis in the same way as in Section 3.3.4.

HeLa cells [4] = assay: Cell cycle experiment (PI flow cytometry), HeLa; conditions: 24 h
Experimental: (§2) A 2 mL volume of cell fluid per well at a concentration of 1 × 10^6 cells / mL was inoculated into a 6-well plate and cultured for 24 h. After removing the old solution, 2 mL of the cell culture medium containing 3k was added to each well, and each well was exposed for 24 h to a concentration gradient of 2.5, 5, and 10 μM. The experiment was repeated three times for each concentration. Complete culture medium containing only cells was used as the blank control group, and 20 μM cisplatin and chalcone injection were used as the positive control group. After 24 h of treatment, the cells were collected in a 15 mL centrifuge tube and fixed with 75% ethanol at 4 °C for 24 h. A 400 µL volume of PI/RNase staining buffer (BD Biosciences Pharmingen, 550825, 10975 Torreyana Road, San Diego, CA, USA) was uniformly dispersed and subjected to staining for 15 min at room temperature […]. The sample was subsequently filtered and analyzed using up-flow cytometry (BD, LSRFortessa, New York, NY, USA).

HeLa/DDP cells [5] = assay: Cell cycle experiment (PI flow cytometry), HeLa/DDP; conditions: 24 h; for blocking rate at the G2/M phase: control 4.05%
Experimental: as §2
The experimental methods for the effect of compound 3k, cisplatin, and chalcone on the HeLa/DDP cell cycle were the same as in Section 3.3.5.

HeLa/DDP cells [6] = assay: Transwell Matrigel invasion assay, HeLa/DDP; conditions: 24 h, control 399
Experimental: The Transwell ([…], Corning Incorporated, New York, NY, USA) was precoated using 50 μL Matrigel for 5 h at 37 °C to achieve solidification. HeLa cells was collected and suspended in a serum-free medium containing varying concentrations (0, 2.5, 5, and 10 μM) of compound 3k, along with 20 μM cisplatin and chalcone. These cell suspensions were then added to the upper wells of a permeabilization chamber at a density of 5 × 10^5 cells/mL. In the lower wells, 600 μL of DMEM containing 10% FBS was added, which had been prepared using 50 μL of Matrigel (diluted 1:8 with serum-free medium from Corning/BD Biosciences). After 24 h of incubation at 37 °C, the invasion cells were fixed using 4% paraformaldehyde and stained using 0.1% crystal violet for 30 min. Then, the chambers were washed using PBS and left to dry. Images were photographed using an inverted fluorescence microscope (Leica Instruments Co., Ltd., Microsystems CMS GmbH, Weizler, Hesse, Germany) and counted using Image J software (V1.8.0.112) for three independent fields randomly.
The experimental methods for the effects of compound 3k, cisplatin, and chalcone on HeLa/DDP cell invasion and migration were the same as in Section 3.3.6.

SMILES: N.N.[Cl][Pt][Cl] [Cisplatin, cisplatin, reference compound]
IC50 (HeLa cells [1]): 13 ± 1.82 µM
IC50 (C33A cells): 6.05 ± 1.15 µM
pro-apoptotic rate (HeLa cells [2]; 20 μM): 46.7%
pro-apoptotic rate (HeLa/DDP cells [3]; 20 μM): 15.0%
percentage of cells in the G0/G1 phase (HeLa cells [4]; 20 μM, control 52.1%): 73.93%
percentage of cells in G0/G1 phase (HeLa/DDP cells [5]; 20 μM, control 57.03%): 65.07%
number of invasion cells (HeLa/DDP cells [6]; 20 μM): 301

IC50 (HeLa cells [1]; Homo sapiens): 9.05 ± 0.53 µM
SMILES: COc1ccc(/C=C(\C)C(=O)c2ccc(Cl)c(Cl)c2)cc1OC [Compound 3k, (E)-1-(3,4-Dichlorophenyl)-3-(3,4-dimethoxyphenyl)-2-methylprop-2-en-1-one]
IC50 (C33A cells; Homo sapiens, C-33-A): 12.1 ± 2.44 µM
pro-apoptotic rate (HeLa cells [2]; 2.5 μM): 29.6%
pro-apoptotic rate (HeLa cells [2]; 5 μM): 47.2%
pro-apoptotic rate (HeLa cells [2]; 10 μM): 64.8%
pro-apoptotic rate (HeLa/DDP cells [3]; 2.5 μM): 36.7%
pro-apoptotic rate (HeLa/DDP cells [3]; 5 μM): 46.3%
pro-apoptotic rate (HeLa/DDP cells [3]; 10 μM): 63.7%
blocking rate at the G2/M phase (HeLa cells [4]; 2.5 μM): 14.04%
blocking rate at the G2/M phase (HeLa cells [4]; 5 μM): 22.84%
blocking rate at the G2/M phase (HeLa cells [4]; 10 μM): 40.18%
blocking rate at the G2/M phase (HeLa/DDP cells [5]; 2.5 μM): 14.71%
blocking rate at the G2/M phase (HeLa/DDP cells [5]; 5 μM): 22.85%
blocking rate at the G2/M phase (HeLa/DDP cells [5]; 10 μM): 52.72%
number of invasion cells (HeLa/DDP cells [6]; 2.5 μM): 293
number of invasion cells (HeLa/DDP cells [6]; 5 μM): 237
number of invasion cells (HeLa/DDP cells [6]; 10 μM): 90
